Patent US6413764B1, “Human metabotropic glutamate receptors, nucleic acids encoding same and uses thereof” (Merck & Co., Inc., priority 1993, dated 2002)
Where two headings read alike, the source gives them in different places.

Columns and labels:
human mGluR5a receptor [1] = molecular target: T1, human mGluR5a receptor (Homo sapiens, UniProt P41594); assay: Phosphatidylinositol hydrolysis (IP1) assay in HEK 293 cells transiently transfected with mGluR5a3; type: cell-based; set-up: expressed in transfected cells; host or cells: HEK 293 cells, transient CaPO4 transfection
T1 sequence (P41594 21-1180 isoform P41594-2 limits assumed): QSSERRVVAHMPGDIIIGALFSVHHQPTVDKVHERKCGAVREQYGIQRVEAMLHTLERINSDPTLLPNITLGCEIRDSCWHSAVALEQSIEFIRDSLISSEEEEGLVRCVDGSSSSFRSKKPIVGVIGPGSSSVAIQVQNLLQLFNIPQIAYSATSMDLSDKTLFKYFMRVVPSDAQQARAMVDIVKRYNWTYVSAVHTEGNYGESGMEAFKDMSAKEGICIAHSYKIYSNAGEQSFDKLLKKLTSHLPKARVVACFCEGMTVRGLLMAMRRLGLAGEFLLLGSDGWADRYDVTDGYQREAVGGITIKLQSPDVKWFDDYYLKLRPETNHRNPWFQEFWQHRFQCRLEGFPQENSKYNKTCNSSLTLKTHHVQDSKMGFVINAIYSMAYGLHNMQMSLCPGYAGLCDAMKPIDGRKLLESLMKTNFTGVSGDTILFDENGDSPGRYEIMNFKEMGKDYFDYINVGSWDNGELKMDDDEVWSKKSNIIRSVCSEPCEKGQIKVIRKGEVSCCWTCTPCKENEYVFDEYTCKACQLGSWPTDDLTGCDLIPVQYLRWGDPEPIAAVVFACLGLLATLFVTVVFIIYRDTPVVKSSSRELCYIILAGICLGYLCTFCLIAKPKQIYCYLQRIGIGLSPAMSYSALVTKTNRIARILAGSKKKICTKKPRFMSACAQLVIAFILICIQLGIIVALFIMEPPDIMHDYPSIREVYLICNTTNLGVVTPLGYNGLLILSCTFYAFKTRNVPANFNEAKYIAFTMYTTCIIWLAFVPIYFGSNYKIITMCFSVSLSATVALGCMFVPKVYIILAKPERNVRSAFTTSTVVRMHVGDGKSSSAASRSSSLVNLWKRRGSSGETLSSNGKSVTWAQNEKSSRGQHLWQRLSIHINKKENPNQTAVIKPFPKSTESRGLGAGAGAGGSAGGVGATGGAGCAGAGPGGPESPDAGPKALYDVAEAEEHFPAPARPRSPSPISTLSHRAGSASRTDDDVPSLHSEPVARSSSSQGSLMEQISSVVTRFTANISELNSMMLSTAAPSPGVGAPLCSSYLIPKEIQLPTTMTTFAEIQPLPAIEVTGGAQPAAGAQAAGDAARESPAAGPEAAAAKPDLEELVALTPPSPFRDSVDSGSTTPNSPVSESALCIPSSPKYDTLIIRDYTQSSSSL
Method: HEK 293 cells that had been transiently transfected with mGluR5a3 were plated in 24-well microtiter plates at a density of 8×10^5 cells/well. After the cells were allowed to settle and adhere to the bottom of the plate for a few hours, 2 μCi of [^3H]-myo-inositol (Amersham catalog # PT6-271, Arlington Heights, Ill.; specific activity=17.7 Ci/mmol) was added to each well and incubated overnight at 37° C. The next day, the cells were examined under a Nikon Diaphot inverted microscope to assess the health of the cells morphologically as well as to determine if the wells contained a confluent layer of cells. Media was then aspirated and the cells were washed twice with 0.5 ml Krebs bicarbonate buffer [117.9 mM NaCl, 4.72 mM KCl, 2.54 mM CaCl2, 1.18 mM MgSO4, 1.19 mM KH2PO4, 25 mM NaHCO3, 11.1 mM dextrose (equilibrated with 95% O2, 5% CO2, pH 7.4)]. The cells were incubated for 45 min. at room temperature. The buffer was then aspirated from each well and the cells were washed and incubated in 0.5 ml/well for 45 min at room temperature. The buffer was aspirated from each well, and the cells were then incubated for 20 min at 37° C. with 450 μl Krebs-bicarbonate buffer containing 10 mM LiCl instead of 10 mM NaCl (to block hydrolysis of IP1 to inositol and inorganic phosphate) and 10 mM unlabeled myo-inositol.
To begin treatment of the cells with metabotropic receptor-modulating compounds, 50 μl of Krebs-bicarbonate buffer (control) or 10× the final concentration of the compound was added to each well and the incubation was continued for 40 min. Incubation was terminated by addition of 1 ml ice-cold methanol to each well.
In order to isolate IP1 from the cells, the cells were removed from the plates by scraping with plastic pipette tips, and the cell suspension was transferred to 12×75 mm glass tubes. The tubes were thoroughly vortexed, and a 150-μl aliquot, i.e., one-tenth of the total volume, of each reaction mixture was transferred to another tube for protein determination. The water-soluble inositol phosphates were separated from the radiolabelled membrane phospholipids by extraction in 1 ml chloroform. The tubes were incubated at room temperature for 30 min before centrifugation at 500×g for 5 min at 4° C. The aqueous (top) layer containing the [^3H]-inositol phosphates was transferred to 10-ml syringes connected to Accell QMA SEP-PAK columns (Millipore; Calif.), which were attached to an Amersham Superseparator apparatus that was modified to allow collection into 20-ml scintillation vials. Water (10 ml) was added to the cartridge to remove [^3H]-inositol precursor, followed by 4 ml 0.02 M triethylammonium hydrogen carbonated buffer (TEAB, Fluka; N.Y.). To separately remove [^3H]-IP1, [^3H]-IP2 and [^3H]-IP3 from the cartridge, 4 ml of 0.1 M TEAB, 4 ml of 0.3 M TEAB and 4 ml of 0.4 M TEAB were sequentially added to the cartridge and the separate eluate fractions were collected in large scintillation vials. Ecolume cocktail (15 ml; ICN; California) was added to each vial for subsequent scintillation counting to determine the amount of each IP in the separate fractions. Protein concentration was determined using the Bio-Rad Protein Micro-Assay (Bio-Rad, Richmond, Calif.).

human mGluR5a receptor [2] = molecular target: T1, human mGluR5a receptor; assay: Two-electrode voltage clamp of Xenopus oocytes injected with mGluR5a3 transcripts; type: cell-based; conditions: for transmembrane currents after application of the compound: oocytes injected with mGluR5a3 transcripts, 0.001-0.1 μM quisqualate, 0.1-10 μM glutamate, 0.1-300 μM 1S,3R-ACPD, clamped at −80 to −100 mV; for dose-response of current magnitude: varying amounts of each compound, mGluR5a3 transcripts
Method: Xenopus oocytes were injected with in vitro transcripts prepared from constructs containing DNA encoding human metabotropic receptors. Electrophysiological measurements of the oocyte transmembrane currents were made using the two-electrode voltage clamp technique (see e.g., Stuhmer (1992) Meth. Enzymol. 207:319-339).
Recombinant capped transcripts of metabotropic receptor cDNAs contained in construct mGluR5a3 were synthesized from linearized plasmids using the Megascript Kit (Cat. #1334, Ambion, Inc., Austin, Tex.). The mass of each synthesized transcript was determined by UV absorbance and the integrity of each transcript was determined by electrophoresis through an agarose gel.
Xenopus oocytes were injected with 10-50 ng of metabotropic receptor transcripts per oocyte. The preparation and injection of oocytes were carried out as described by Dascal [(1987) Crit; Rev. Biochem. 22:317-387]. Two-to-six days following mRNA injection, the oocytes were examined using the two-electrode voltage clamp technique. The cells were bathed in Ringer's solution (115 mM NaCl, 2.5 mM KCl, 1.8 mM CaCl2, 10 mM HEPES, pH 7.3), and the membrane potential was clamped at −80 to −100 mV. Drugs were applied by pipetting 60 μl aliquots of drug-containing solution directly into the bath. Data were sampled at 2-5 Hz with a Labmaster data acquisition board in PC-386 using AXOTAPE version 1.2 (Axon Instruments, Foster City, Calif.) software. Data were exported to a laser printer or plotted using Sigmaplot version 5.0.
Metabotropic receptor-modulating compounds, i.e., 0.001-0.1 μM quisqualate, 0.1-10 μM glutamate and 0.1-300 μM 1S,3R-ACPD (1-amino-cyclopentyl-1,3-dicarboxylic acid), were applied to the bath and the transmembrane currents were recorded.

[3] = 1 mM, HEK 293 transfected with 0.18 μg of mGluR5a3
[4] = varying amounts of compound, cells transfected with mGluR5a3

Structure (SMILES) | IP1 levels on treatment with compound (human mGluR5a receptor [1]; [3]) | dose-response of IP1 levels (human mGluR5a receptor [1]; [4]) | transmembrane currents after application of the compound (human mGluR5a receptor [2]) | dose-response of current magnitude (human mGluR5a receptor [2]) | IP1 levels on treatment with compound (human mGluR5a receptor [1]) | dose-response of IP1 levels (human mGluR5a receptor [1])
NC1(C(=O)O)CCC(C(=O)O)C1 (stereo not drawn) [1S,3R-ACPD, 1-amino-cyclopentyl-1,3-dicarboxylic acid] | detectable increases in IP1 levels | IP1 levels increased with increasing concentration | Significant currents were detected | current magnitude increased with increasing concentration | – | –
N[C@@H](CCC(=O)O)C(=O)O [glutamate] | detectable increases in IP1 levels | IP1 levels increased with increasing concentration | Significant currents were detected | current magnitude increased with increasing concentration | – | –
N[C@@H](Cn1oc(=O)[nH]c1=O)C(=O)O [quisqualate] | – | – | Significant currents were detected | current magnitude increased with increasing concentration | detectable increases in IP1 levels | IP1 levels increased with increasing concentration
